# Measured values as given in patent publication US20170173008A1, “ANTIMICROBIAL AGENTS AND SCREENING METHODS” (PRESIDENT AND FELLOWS OF HARVARD COLLEGE, priority 2014, published 2017).
# Entries after “also recorded” stand apart in the source; their conditions may differ. Where two headings read alike, the source gives them in different places.
# Key:
# E. coli DsbB = E. coli DsbB (Escherichia coli, UniProt P0A6M2); assay: Blue/white beta-galactosidase agar assay, DsbB-based E. coli strain; assay type: cell-based; details: for MIC for blue color appearance / minimal inhibitory concentration of DsbB: β-galactosidase agar media assay
# Chain of E. coli DsbB (P0A6M2 whole entry): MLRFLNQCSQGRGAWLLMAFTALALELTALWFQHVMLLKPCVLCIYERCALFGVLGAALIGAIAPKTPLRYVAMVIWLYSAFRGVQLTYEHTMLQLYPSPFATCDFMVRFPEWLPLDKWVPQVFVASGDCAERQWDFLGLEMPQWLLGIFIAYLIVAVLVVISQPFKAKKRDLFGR
# purified EcDsbB = molecular target: T1, purified EcDsbB (Escherichia coli, UniProt P0A6M2, C49V/C8A); assay: In vitro assay of purified DsbB (ubiquinone reduction); assay type: biochemical, E. coli
# T1 construct: made in house; host or cells: E. coli
# T1 sequence (P0A6M2 whole entry C8A/C49V): as the sequence (P0A6M2 whole entry) above, with C8A, C49V counted along it
# Excerpt: In addition to the in vivo assays of MICs, we have purified DsbB from E. coli and assessed the concentration dependence for inhibition of the enzyme's activity in oxidizing DsbA.
# In this assay, we determine the concentration of a compound necessary to reduce the activity of purified DsbB enzyme by 50%. DsbB uses ubiquinone as a co-factor for the generation of disulfide bonds. DsbB oxidizes DsbA and reduces ubiquinone. When it is in the oxidized state, ubiquinone absorbs strongly at 275 nm but it has a diminished absorbance when it is in the reduced state at the same wavelength. Therefore, DsbB activity can be measured by the reduction of ubiquinone and this is assessed by following the decrease of absorbance of ubiquinone at 275 nm. The assay uses 20 μM purified and DTT-reduced DsbA, 20 uM UbQ-5, and 2 nM purified DsbB at pH6.0.
# We tested several compounds for their inhibitory effect on EcDsbB-mediated ubiquinone reduction using purified enzymes. In this assay, reduced DsbA provides the source of electrons that are used by EcDsbB to reduce ubiquinone-5. The compounds show dose-dependent inhibition of EcDsbB with half-maximal inhibitory concentrations (IC50) in the low-μM range.
# DsbB-DsbAC33A dimer = molecular target: T2, DsbB-DsbAC33A dimer (Escherichia coli, UniProt P0A6M2, C49V/C8A); assay: Mass spectrometry of DsbB-DsbAC33A complex treated with compound; assay type: binding, E. coli
# T2 construct: made in house
# T2 sequence (P0A6M2 whole entry C8A/C49V): as the sequence (P0A6M2 whole entry) above, with C8A, C49V counted along it
# Experimental: Since the theoretical molecular weight of compound 16.6 is 289.54 Da, the 35.9-Da mass loss may represent a leaving chloride ion. This mass adduct was not observed when either DsbB (oxidized), DsbA (reduced) or DsbAC33A, alone was treated with the compound (FIG. 7C).
# VKOR of M. tuberculosis = molecular target: T3, VKOR of M. tuberculosis (Mycobacterium tuberculosis, UniProt I6X5W1); assay type: cell-based; details: agar assay
# T3 sequence (I6X5W1 1-210): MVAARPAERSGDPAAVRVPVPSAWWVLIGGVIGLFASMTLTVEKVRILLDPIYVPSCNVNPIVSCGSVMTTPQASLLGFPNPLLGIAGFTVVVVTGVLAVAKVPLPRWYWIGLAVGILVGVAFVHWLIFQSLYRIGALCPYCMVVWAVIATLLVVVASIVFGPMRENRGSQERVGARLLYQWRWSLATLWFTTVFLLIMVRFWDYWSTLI
# DsbB [1] = molecular target: T4, DsbB (Escherichia coli, UniProt P0A6M2, C49V/C8A); assay: cell-based; assay type: cell-based, E. coli; details: for EC50 RATIO (EC50 compound 16/EC50): E. coli DHB7935, liquid media
# T4 construct: expressed in transfected cells; host or cells: E. coli DHB7935 (HK295 ΔdsbB λatt::malF-lacZ102, φ80::pDSW206dsbBhis6-c-myc)
# T4 sequence (P0A6M2 whole entry C8A/C49V): as the sequence (P0A6M2 whole entry) above, with C8A, C49V counted along it
# DsbB [2] = molecular target: DsbB (Escherichia coli, UniProt P0A6M2); assay: Oxidation of DsbA by DsbB in growing E. coli (in vivo alkylation assay); details: liquid minimal medium
# Chain of DsbB (Escherichia coli, UniProt P0A6M2) (P0A6M2 whole entry): as the sequence (P0A6M2 whole entry) above
# Experimental: Second, we measured MICs of the strongest inhibitors in terms of their effects on the oxidation of DsbA by DsbB and on the inhibition of disulfide bond formation in growing liquid cultures. […] The oxidation of DsbA was assessed by a standard alkylation assay for free cysteines in DsbA.
# The in vivo chemical alkylation procedure was done as described previously (Chng S et al. Science 337, 1665-1668 (2012)). […] A 500 μl culture aliquot was then transferred to a 1.5 ml tube and precipitated with 50 μl of trichloroacetic acid (TCA, 100%, Mallinckrodt Baker). The mixture was incubated on ice for 10 min and precipitated proteins were pelleted at 18 000 g for 10 min. The protein pellet was washed with 600 μl ice-cold acetone and incubated on ice for 10 min. The protein was re-pelleted by centrifugation at 18 000 g for 3 min and left to air-dry at room temperature. The TCA-precipitated proteins were either directly subjected to alkylation or first reduced before alkylation. For reduction, proteins were incubated in 100 μl 100 mM Tris HCl, pH 8.0 containing 0.1% SDS and 100 mM dithiothreitol (DTT, Invitrogen) for 30 min at room temperature. M63 (500 μl) medium was added and the reduced proteins were re-precipitated with TCA and further washed with acetone. […]
# [3] = system: DsbBs from other gram-negative pathogens; assay type: cell-based; details: agar assay, 384-well plates
# [4] = system: RcsF, a substrate of DsbA; assay: Disulfide bond formation in RcsF in growing E. coli liquid culture; assay type: cell-based; details: liquid minimal medium
Compound,difference between inhibition of DsbB and of VKOR (E. coli DsbB; MIC DsbB versus highest concentration without VKOR inhibition),MIC for blue color appearance / minimal inhibitory concentration of DsbB (E. coli DsbB),"IC50 (purified EcDsbB; in vitro assay, read-out: IC50)","adduct on Cys44 of DsbB (DsbB-DsbAC33A dimer; high-resolution tandem mass spectrometry, chymotrypsin digest)",adduct with the DsbB-DsbAC33A dimer (DsbB-DsbAC33A dimer; ion-trap mass spectrometry),concentration up to which no inhibition of VKOR was observed (VKOR of M. tuberculosis),EC50 (DsbB [1]),fold more inhibitory than compound 16 (DsbB [1]),EC50 RATIO (EC50 compound 16/EC50) (DsbB [1]),"MIC, oxidation of DsbA by DsbB (DsbB [2])","inhibition of DsbBs of other gram-negative bacteria expressed in E. coli, in words [3]","IC50 (purified EcDsbB; IC50 (μM), Table 9)","IC50 (purified EcDsbB; IC50, purified DsbB)","MIC, disulfide bond formation in RcsF [4]"
O=c1c(Cl)c(Cl)cnn1Cc1ccccc1Cl [Compound 16.6],equal to or greater than two orders of magnitude,0.53 µM,0.0189 µM,252.995 Da,253.6 Da,> 50 µM,160 nM,23 fold,23.03,0.7 µM,most effective inhibitor; also recorded: one of the most effective inhibitors,–,–,–
O=c1c(Cl)c(Cl)cnn1Cc1ccccc1 [Compound 16],–,5.7 µM,–,–,–,–,5100 nM,–,1.00,5 µM,–,1.86 µM,1.85 µM,100 µM
